According to patent US20260374817A1, “COMPOSITIONS COMPRISING TREM-1 INHIBITORS AND USES THEREOF” (INOTREM, priority 2023, published 2026):
“Also recorded” adds a separate entry of the source.

Legend:
[1] = test system: TREM-1 pathway; test: ROS production by LPS-stimulated human primary neutrophils (DCFDA, flow cytometry, MFI); assay type: cell-based; conditions: for decrease of LPS-induced ROS production: 100 ng/mL LPS, 2 hours, 37 °C, LR12 or LR12-dimer 10 and 50 μg/mL; for TREM-1 inhibiting property / biological activity: preclinical in vitro pharmacology model
Procedure: FIG. 1 is a graph showing the results from flow cytometric quantification (DCFDA reduction) of neutrophils ROS production after 2 hours stimulation with LPS, LPS+10 μg/mL LR12, LPS+50 μg/mL LR12, LPS+10 μg/mL LR12-dimer (dimer), LPS+50 μg/mL LR12-dimer (dimer). […]; **p<0.01 (T test).
Neutrophils produce reactive oxygen species (ROS) in presence of LPS (lipopolysaccharides) following activation of the TREM-1 pathway and are thus used in the present example in order to assess TREM-1 activation and the biological activity of the LR12 dimer on the TREM-1 pathway. ROS production induced by TREM-1 activation and its modulation by LR12 can be quantified by flow cytometry. Any decrease in ROS production by LR12 (LPS+LR12 conditions) translates into a decrease in mean fluorescence intensity (MFI) as compared to the ROS production observed following the TREM-1 activation in presence of LPS (LPS condition).
Primary human neutrophils were isolated from the peripheral blood of healthy donors by immunomagnetic negative cell sorting with EasySep™ Human Monocyte/Neutrophil Isolation Kits (StemCell, Canada) following the manufacturer's instructions. Purity was assessed by flow cytometry. Cells were suspended in RPMI 1640 medium containing GlutaMAX and supplemented with 10% FCS, 25 mM HEPES, 100 U/ml penicillin and streptomycin before stimulation. Human primary neutrophils were incubated in resting conditions (also referred to as control conditions or ctrl 2), or with 100 ng/mL LPS from E. coli serotype 0127: B8 (Sigma-Aldrich), with or without LR12 or LR12-dimer (dimer) at the indicated concentrations.
Upon cleavage of the acetate groups by intracellular esterases and oxidation, the nonfluorescent DCFDA is converted to the highly fluorescent 2′,7′-dichlorofluorescein (DCF). 2.5×10^5 isolated human neutrophils were incubated 2 hours at 37 °C-5% CO2 with 5 μM of DCFDA, with or without 100 ng/mL LPS, and with or without LR12 or LR12-dimer (dimer) at the indicated concentrations. Data were acquired using flow cytometry. Results are expressed as mean fluorescence intensity (MFI).

[2] = test system: TREM-1 signaling; conditions: Derive et al., 2012; cited from earlier work
[3] = Solubility of LR12 in formulations / screening of solubility aids; assay type: physicochemical
Procedure: Briefly, to reduce the formation of disulfide bridges, the pH during the formulation process was reduced to below 6.0. However, LR12 contains 4 acidic, negatively charged amino acids, namely glutamate (Glu) and aspartate (Asp) and no basic amino acids.
To solve this problem, solubility aids were screened at pH 5.5 and 6.5.
The purified substance of LR12 peptide (of example 2) is formulated using the following excipients: 50 mM sodium citrate pH 5.5; 50 mM NaCl.
The purified substance of LR12 peptide (of example 2) is formulated using the following excipients: 50 mM sodium phosphate pH 6.5; 50 mM NaCl.
The purified substance of LR12 peptide (of example 2) is formulated using the following excipients: 50 mM sodium citrate pH 5.5; 200 mM mannitol.
The purified substance of LR12 peptide (of example 2) is formulated using the following excipients: 50 mM sodium citrate pH 5.5; 150 mM betaine.
The purified substance of LR12 peptide (of example 2) is formulated using the following excipients: 5 0 mM sodium citrate pH 5.5; 50 mM lysine; 50 mM NaCl.
The purified substance of LR12 peptide (of example 2) is formulated using the following excipients: 50 mM sodium citrate pH 5.5; 50 mM arginine.
The purified substance of LR12 peptide (of example 2) is formulated using the following excipients: 25 mM sodium citrate pH 5.5; 225 mM arginine; 65 mM HCl.
Formulations using incremental concentrations of the purified substance of LR12 peptide (of example 2) and incremental concentrations of the following excipients: Arginine 90 to 420 mM, using only HCl for pH adjustment to 5.5.

[4] = test system: adult minipig model of induced sepsis; conditions: after induction of fecal peritonitis; Derive et al., 2013; cited from earlier work

Row | SMILES | decrease of LPS-induced ROS production [1] | TREM-1 inhibiting property / biological activity [1] | TREM-1 inhibiting property / biological activity ([1]; listed as LR12-dimer) | anti-inflammatory properties [2] | solubility below pH 5.0 ([3]; below pH 5.0) | solubility with solubility aids (no improvement) ([3]; pH 5.5 and 6.5, Tween 20, mannitol, sucrose, trehalose, betaine, urea, glutathione, ammonium acetate, citrate) | solubility ([3]; screened at pH 5.5 and 6.5, only by adding lysine or arginine or histidine, read-out: solubility reached with positively charged solubility enhancing agents) [mg/mL] | cardiovascular failure [4] | survival [4]
1 | CSCC[C@H](NC(=O)[C@H](CSSC[C@H](NC(=O)CNC(=O)[C@H](Cc1ccc(O)cc1)NC(=O)[C@H](CCC(=O)O)NC(=O)CNC(=O)[C@H](C)NC(=O)[C@H](CC(=O)O)NC(=O)[C@H](CCC(=O)O)NC(=O)[C@H](CCC(=O)O)NC(=O)[C@H](CCC(N)=O)NC(=O)[C@@H](N)CC(C)C)C(=O)N[C@@H](CCSC)C(N)=O)NC(=O)CNC(=O)[C@H](Cc1ccc(O)cc1)NC(=O)[C@H](CCC(=O)O)NC(=O)CNC(=O)[C@H](C)NC(=O)[C@H](CC(=O)O)NC(=O)[C@H](CCC(=O)O)NC(=O)[C@H](CCC(=O)O)NC(=O)[C@H](CCC(N)=O)NC(=O)[C@@H](N)CC(C)C)C(N)=O [LR12 dimer] | not able to decrease the production of ROS by LPS-activated neutrophils | did not display any TREM-1 inhibiting property; also recorded: inactive in a preclinical in vitro pharmacology model; also recorded: biologically inactive | not able to induce any pharmacological inhibition of TREM-1 | – | – | – | – | – | –
2 | CSCC[C@H](NC(=O)[C@H](CS)NC(=O)CNC(=O)[C@H](Cc1ccc(O)cc1)NC(=O)[C@H](CCC(=O)O)NC(=O)CNC(=O)[C@H](C)NC(=O)[C@H](CC(=O)O)NC(=O)[C@H](CCC(=O)O)NC(=O)[C@H](CCC(=O)O)NC(=O)[C@H](CCC(N)=O)NC(=O)[C@@H](N)CC(C)C)C(N)=O [LR12] | able to decrease in a dose-dependent manner the LPS-induced release of ROS | – | – | exhibit anti-inflammatory properties by inhibiting TREM-1 signaling | barely soluble below pH 5.0 | failed to improve the solubility of LR12 | 40 | reduced cardiovascular failure | improved survival
